The values below come from patent US4210639A, “5'-Deoxy-5'-(isobutylthio)-3-deazaadenosine, method of making same and its antiviral effect on Rous sarcoma virus and Gross murine leukemia virus” (The United States of America as represented by the …, priority 1978, dated 1980).

In one series the test system is oncogenic virus. Kind of series: Oncogenic virus-induced malignant transformation / viral replication, general statements. Type of series: cell-based.
A further series concerns chick embryo cells. Nature of the series: Effects on host chick embryo cells. As to conditions: 0.1 mM. Type of series: cell-based.
Series [1] deals with T1, AdoHcy hydrolase (Bos taurus, UniProt Q3MHL4).
T1 construct: AdoHcy hydrolase from cow liver; from tissue; host or cells: cow liver
T1 sequence (Q3MHL4 2-432 limits assumed): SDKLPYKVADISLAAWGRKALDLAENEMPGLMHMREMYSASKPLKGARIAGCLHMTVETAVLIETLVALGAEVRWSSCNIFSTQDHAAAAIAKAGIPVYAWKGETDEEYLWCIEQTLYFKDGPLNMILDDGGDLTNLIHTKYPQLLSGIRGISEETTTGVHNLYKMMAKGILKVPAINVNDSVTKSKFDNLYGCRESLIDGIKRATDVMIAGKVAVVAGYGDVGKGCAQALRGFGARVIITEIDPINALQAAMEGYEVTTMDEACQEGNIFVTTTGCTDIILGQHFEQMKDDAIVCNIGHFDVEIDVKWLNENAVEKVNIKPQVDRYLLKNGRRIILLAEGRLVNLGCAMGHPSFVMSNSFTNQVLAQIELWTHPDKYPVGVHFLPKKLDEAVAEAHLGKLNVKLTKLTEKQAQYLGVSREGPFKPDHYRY
Nature of the series: Inhibition of AdoHcy hydrolase from cow liver. The series is classed as biochemical. As to conditions: for IC50: read-out: I50.

For a further series, the system named is RSV-BH. Kind of series: Focus formation (oncogenic transformation) by RSV-BH in chick embryo cells. The series is classed as cell-based. The following applies: for inhibition at 100 µM / inhibition at 30 µM: Gallus gallus. How it is done:
Additionally, the ability of these compounds to inhibit the oncogenic transformation of chick embryo cells induced by RSV-BH was examined.
*Compounds were added 18 h after infection and foci were counted 7 days

Another series relates to mouse embryo cells. Nature of the series: Multiplication/cytotoxicity of mouse embryo host cells after 4 days exposure. The following applies: 30 to 100 μM. The series is classed as cell-based, Swiss mouse. How it is done:
(§1) Each point represents the mean number of UV-XC plaques per culture (triplicate assays)± the standarad deviation. The drug was dissolved in DMSO at the time of virus inoculation and was present throughout the incubation period. (B) Effect of treatment on the multiplication of host cells after 4 days exposure to drug. Each point represents the mean number of viable mouse embryo cells per culture ± the standard deviation. The initial number of cells plated was 3.5×10^5 cells.
(§2) The ability of 5'-deoxy-5'-(isobutylthio)-3-deazaadenosine to inhibit replication of Gross MLV in mouse embryo cells was tested. […] The selectivity ratio (i.e., the highest noncytotoxic concentration of drug over the lowest effective concentration of drug) was about 10.

Series [2] has as its system AdoHcy hydrolase. Nature of the series: Hydrolysis of the compound by AdoHcy hydrolase. The series is classed as biochemical.
For another series, the system named is Gross MLV. Kind of series: Replication of Gross MLV in mouse embryo cells (UV-XC plaque assay). The series is classed as cell-based, Swiss mouse. How it is done: as §1, §2
Another series has as its system cells. Kind of series: Tolerance by cells. The series is classed as cell-based.
Another series concerns methyltransferases. The following applies: AdoMet-utilizing methyltransferases; cited from earlier work.
Where [3] appears, read: 0.03 mM, added 18 h after infection, counted 7 days later.
Setting [4] is: 0.1 mM, added 18 h after infection, counted 7 days later.
[5] abbreviates: 168 h, read-out: Reduction of focus formation in RSV-BH infected cells.
The mark [6] stands for this setting: 0.1 mM, added 18 h after infection, counted 7 days later, read-out: % Inhibition of focus formation.
[7] abbreviates: AdoHcy hydrolase from cow liver.
The mark [8] stands for this setting: non-competitive inhibition of AdoHcy hydrolase.

Entries after “also recorded” stand apart in the source; their conditions may differ. Like-named read-outs stand apart in the source and are kept apart here. Where only a bound is given, the exact number is not on record here.

As a reminder, the Ki is a measure of affinity in units of concentration, obtained from inhibition or displacement. A lower Ki goes with a stronger hold on the target. As for `Nc1nccc2c1ncn2[C@@H]1O[C@H](CO)[C@@H](O)[C@H]1O` [3-Deazaadenosine, 4-amino-1-β-D-ribofuranosyl [4,5-c]pyridine], the “Ability to inhibit viral replication, compared between the two compounds” value with oncogenic virus is “almost equal”. Further, the “Effects on the host cells” value in the series on chick embryo cells is given as “without noticeable effects on the host cells”. At AdoHcy hydrolase [1], the “Inhibition of AdoHcy hydrolase (in words)” value is reported as “most potent inhibitor of AdoHcy hydrolase” and the “Type of inhibition of AdoHcy hydrolase” value was “competitive inhibitor”. Further, on AdoHcy hydrolase [1] (AdoHcy hydrolase), the IC50 is 8 µM. This compound also showed a Ki at AdoHcy hydrolase [1] (competitive inhibition of AdoHcy hydrolase) of 3 µM. Further, at AdoHcy hydrolase [1] (nearly 100-fold more potent than 5'-deoxy-5'-S-isobutyl-adenosine), the “Potency relative to 5'-deoxy-5'-S-isobutyl-adenosine as inhibitor of AdoHcy hydrolase” value was roughly 100 fold. In addition, in the series with RSV-BH, the “Effect on oncogenic transformation induced by Rous sarcoma virus and on its infectivity” value was “powerful, although reversible, effect”; the “Sensitivity to drug by phase of virus replication” value is “maximal during the phase of virus replication which required the synthesis of viral mRNA and protein”. In the series on RSV-BH (setting [3]), the “No. of Foci” value was 106 and the inhibition at 30 µM stood at 68%. Further, the “No. of Foci” value in the series on RSV-BH (setting [4]) was 17. In addition, the inhibition at 100 µM with RSV-BH (setting [5]) was 95%. Besides, the inhibition at 100 µM in the series with RSV-BH (setting [6]) stood at 95%.
With `Nc1nccc2c1ncn2[C@@H]1O[C@H](CSCC[C@H](N)C(=O)O)[C@@H](O)[C@H]1O` [3-Deazaadenosylhomocysteine], the “Effect on focus formation / RSV activity (in words)” value with RSV-BH is “Neither 3-deaza-AdoHcy nor 9-[5'-deoxy-5'-(methylthio)- β-D-arabinofuranosyl]adenine had any significant effect on focus formation”. The results for the “No. of Foci” value in the series on RSV-BH (setting [3]) and in the series on RSV-BH (setting [4]) were 330 and 276, respectively. This compound also had an inhibition at 30 µM with RSV-BH (setting [3]) of 0%. Also, the inhibition at 100 µM with RSV-BH (setting [6]) came to 16%.
Turning to `CC(C)CSC[C@H]1O[C@@H](n2cnc3c(N)nccc32)[C@H](O)[C@@H]1O` [5'-Deoxy-5'-(isobutylthio)-3-deazaadenosine], the “Ability to inhibit viral replication, compared between the two compounds” value with oncogenic virus is “almost equal”. For the same compound, the “Reversal of malignant transformation induced by oncogenic virus” value in the series with oncogenic virus is “will reverse the malignant transformation”. For the same compound, the “Effects on the host cells” value in the series with chick embryo cells is on record as “without noticeable effects on the host cells”. The “Inhibition of AdoHcy hydrolase (in words)” value on AdoHcy hydrolase [1] was “potent inhibitors of AdoHcy hydrolase; also recorded: good activity”. The results for the “Type of inhibition of AdoHcy hydrolase” value at AdoHcy hydrolase [1] and at AdoHcy hydrolase [1] (listed as 5'-deoxy-(isobutylthio)-3-deazaadenosine) were “non-competitive inhibitor” and “non-competitive”, respectively. Moreover, the IC50 on AdoHcy hydrolase [1] (setting [7]) amounted to 280 µM. Further, the “Ki relative to the Ki of 3-deazaadenosine” value at AdoHcy hydrolase [1] (times higher than Ki of 3-deazaadenosine) is listed as “about 100 times”. Moreover, the Cytotoxicity entry in the series with mouse embryo cells is reported as “cytotoxicity was observed”. In addition, the “Hydrolysis by AdoHcy hydrolase” value in the series with AdoHcy hydrolase [2] was “not to be hydrolyzed”. Moreover, the inhibition at 3 µM in the series with Gross MLV (3 μM, Gross MLV in mouse embryo cells, read-out: Inhibition of plaque formation in the indicator XC cells) is 85%. In the series with Gross MLV (30 to 100 μM, Gross MLV in mouse embryo cells), the “Inhibition of virus replication (in words)” value is recorded as “Complete inhibition”. The “Selectivity ratio (highest noncytotoxic concentration over lowest effective concentration)” value in the series on Gross MLV (Gross MLV in mouse embryo cells) is “about 10”. Also, the “Antiviral activity against Gross murine leukemia virus (in words)” value in the series with Gross MLV (mouse embryo cells) was “good antiviral; also recorded: has shown activity”. In addition, the “Effect on focus formation / RSV activity (in words)” value in the series on RSV-BH was “good antiviral; also recorded: just as effective as 3-deazaadenosine itself; also recorded: has shown activity”. The “No. of Foci” value with RSV-BH (setting [3]) worked out at 93; with RSV-BH (setting [4]), 3. Also, the figures for the inhibition at 100 µM in the series with RSV-BH (setting [5]) and with RSV-BH (setting [6]) were 95% and 99%, respectively. The compound also gave an inhibition at 30 µM in the series with RSV-BH (setting [3]) of 72%. Also, the Tolerance by cells result with cells was “well tolerated by cells”.
For `CC(C)CSC[C@H]1O[C@@H](n2cnc3c(N)ncnc32)[C@H](O)[C@@H]1O` [5'-deoxy-5'-S-isobutyladenosine], the “Inhibition of AdoHcy hydrolase (in words)” value at AdoHcy hydrolase [1] is “potent inhibitors of AdoHcy hydrolase”. At AdoHcy hydrolase [1] (setting [7]), the IC50 was greater than 1000 µM. Further, the Tolerance by cells entry with cells is given as “well tolerated by cells”.
Regarding `CSC[C@H]1O[C@@H](n2cnc3c(N)ncnc32)[C@@H](O)[C@@H]1O` [9-[5'-deoxy-5'-(methylthio)-β-D-arabinofuranosyl]-adenine], the “Type of inhibition of AdoHcy hydrolase” value at AdoHcy hydrolase [1] was “non-competitive”. Besides, the IC50 at AdoHcy hydrolase [1] (setting [7]) stood at 430 µM. At AdoHcy hydrolase [1] (setting [8]), this compound returned a Ki of 500 µM. Also, the “Effect on focus formation / RSV activity (in words)” value in the series on RSV-BH is “Neither 3-deaza-AdoHcy nor 9-[5'-deoxy-5'-(methylthio)- β-D-arabinofuranosyl]adenine had any significant effect on focus formation”. Further, the figures for the “No. of Foci” value in the series on RSV-BH (setting [3]) and in the series on RSV-BH (setting [4]) were 274 and 298, respectively. Further, the inhibition at 30 µM in the series on RSV-BH (setting [3]) is 17%. Besides, the inhibition at 100 µM with RSV-BH (setting [6]) amounted to 9%.
`Nc1ncnc2c1ncn2[C@@H]1O[C@H](CSCC[C@H](N)C(=O)O)[C@@H](O)[C@H]1O` [Adenosylhomocysteine, S-adenosyl-L-homocysteine]: the Inhibition of methyltransferases entry with methyltransferases was “inhibit competitively most of the methyltransferases; also recorded: competitive inhibitor”.
With `Nc1ncnc2c1ncn2[C@@H]1O[C@H](CNCCC(N)C(=O)O)[C@@H](O)[C@H]1O` (stereo partly drawn) [Nγ-adenosyl-α,γ-diamino-butyric acid], the “Type of inhibition of AdoHcy hydrolase” value on AdoHcy hydrolase [1] is on record as “non-competitive”. Also, the IC50 at AdoHcy hydrolase [1] (setting [7]) came out at 140 µM. Moreover, on AdoHcy hydrolase [1] (setting [8]), affinity was put at a Ki of 300 µM.
